# Patent US10071965B2, “Pyridone FabI inhibitors and uses thereof” (priority 2015, dated 2018)
# Several values for one entry are separate records, joined by “and”; a condition that tells them apart may be missing. Identical values can stand only once. Like-named read-outs stand apart in the source and are kept apart here.
# What was measured:
# saFabI [1] = target: T1, saFabI (Staphylococcus aureus (strain MRSA252), UniProt Q6GI75); assay: saFabI inhibition kinetics; type: biochemical
# [2] = target: M. tuberculosis enoyl-ACP reductase InhA (Mycobacterium tuberculosis (strain ATCC 25618 / H37Rv), UniProt P9WGR1); assay: InhA inhibition kinetics; type: biochemical
# S. aureus RN4220 = assay: MIC microbroth dilution, S. aureus RN4220; type: cell-based, Staphylococcus aureus; conditions: for Staphylococcus aureus MIC (μg/mL) RN4220: 2-pyridones table; for MIC: Staphylococcus aureus
# F. tularensis LVS = assay: microbe, parasite or virus in culture; type: cell-based; conditions: Francisella tularensis, read-out: Francisella tularensis MIC (μg/mL) LVS, 2-pyridones table
# M. tuberculosis H37Rv = assay: MIC microbroth dilution, M. tuberculosis H37Rv; type: cell-based; conditions: Mycobacterium tuberculosis, H37RV, read-out: Mycobacterium tuberculosis MIC (μg/mL) H37Rv
# Bt38 = assay: microbe, parasite or virus in culture; type: cell-based; conditions: Burkholderia pseudomallei, read-out: Burkholderia pseudomallei MIC (μg/mL) Bt38
# [3] = target: Francisella tularensis FabI (Francisella tularensis subsp. tularensis (strain SCHU S4 / Schu 4), UniProt Q5NGQ3); assay: biochemical
# bpFabI = bpFabI (Burkholderia pseudomallei, UniProt A0A0H3HP34); assay: biochemical
# ecFabI = ecFabI (Escherichia coli (strain K12), UniProt P0AEK4); assay: ecFabI inhibition kinetics; type: biochemical
# E. coli MG1655 ΔacrAB = assay: microbe, parasite or virus in culture; type: cell-based, Escherichia coli; conditions: for MIC: Escherichia coli, MG1655
# saFabI [4] = target: T1, saFabI; assay: Jump dilution assay with saFabI; type: biochemical; conditions: preincubation with NADP+ and saFabI, jump dilution; read-out: residence time tR
# bpFabV = bpFabV (Burkholderia pseudomallei, UniProt Q63TE9); type: biochemical; conditions: read-out: Burkholderia pseudomallei IC50 (μM), bpFabV
# YpFabV = YpFabV (Yersinia pestis, UniProt Q8Z9U1); assay: biochemical
# [5] = Ki^app (nM), saFabI, [S]/KS = 2
# [6] = Staphylococcus aureus Ki (in brackets under IC50), 2-pyridones table
# [7] = RN4220, 2-pyridones table, read-out: Staphylococcus aureus MIC (μg/mL) RN4220
# [8] = RN4220, S. aureus RN4220, read-out: MIC
# [9] = [S]/KS = 0.19, binds E-NAD+ binary complex, single point progress curve analysis, read-out: Ki^app
# [10] = binds E-NAD+ binary complex, single point progress curve analysis, read-out: Ki
smiles,measurement,setting,value
CCCCCCc1ccn(Cc2ccccc2Cl)c(=O)c1 [PT172],IC50,saFabI [1],379 ± 88 nM
same,Ki,"saFabI [1]; Ki (nM), saFabI",11 ± 0.4 nM
same,Ki,saFabI [1]; [5],40.7 ± 1.3 nM
same,Ki,saFabI [1]; [6],11 ± 0.4 nM
same,IC50,[2],240 ± 44 nM
same,Staphylococcus aureus MIC (μg/mL) RN4220,S. aureus RN4220,8 µg/mL
same,MIC,S. aureus RN4220; [7],5 µg/mL
same,MIC,S. aureus RN4220; [8],26.3 µM
same,MIC,F. tularensis LVS,4.04 µg/mL
same,MIC,M. tuberculosis H37Rv; 2-pyridones table,25 µg/mL
same,MIC,Bt38,250 µg/mL
same,IC50,[3],61 ± 13 nM
same,IC50,bpFabI,260 ± 9.3 nM
CCCCCCc1ccn(Cc2ccccc2)c(=O)c1 [PT179],IC50,saFabI [1],192 ± 30 nM
same,Ki,"saFabI [1]; Ki (nM), saFabI",19 ± 2.7 nM
same,Ki,saFabI [1]; [5],70.4 ± 9.8 nM
same,Ki,saFabI [1]; [6],19 ± 2.7 nM
same,MIC,S. aureus RN4220; [7],32 µg/mL
same,MIC,S. aureus RN4220; [8],119 µM
CCCCCCc1ccn(Cc2cccc(F)c2)c(=O)c1 [PT421],IC50,saFabI [1],297 ± 64 nM
same,MIC,S. aureus RN4220; [7],2 µg/mL
Oc1cc(Cl)ccc1Oc1ccccc1 [PT52],Ki,ecFabI; [9],26.9 nM
same,Ki,ecFabI; [10],0.1 nM
same,MIC,E. coli MG1655 ΔacrAB,0.1 µM
same,residence time,saFabI [4],30 min
CCCCCCc1cc(=O)c(Oc2ccccn2)cn1C [PT168],IC50,[2],1780 ± 315 nM
same,MIC,M. tuberculosis H37Rv; 4-pyridones table,50 µg/mL
CCCCCCc1cc(=O)c(Oc2cccnc2N)cn1C [PT169],IC50,[2],379 ± 41 nM
same,MIC,M. tuberculosis H37Rv; 4-pyridones table,12.5 µg/mL
CCCCCCc1cc(=O)c(Oc2cccnc2C#N)cn1C [PT167],IC50,[2],979 ± 152 nM
same,MIC,M. tuberculosis H37Rv; 4-pyridones table,100 µg/mL
CCCCCCc1ccn(Cc2ccccc2F)c(=O)c1 [PT423],IC50,saFabI [1],165 ± 22 nM
same,MIC,S. aureus RN4220; [7],16 µg/mL
CCCCCCc1ccc(Oc2ccccc2)c(=O)[nH]1 [PT191],IC50,saFabI [1],> 2000 nM
same,Ki,"saFabI [1]; Ki (nM), saFabI",196 ± 22.2 nM
same,Ki,saFabI [1]; [5],729 ± 82.4 nM
same,Ki,saFabI [1]; [6],196 ± 22.2 nM
same,"Mycobacterium tuberculosis enzyme, inhibition","[2]; [I] = 2 μM, [E] = 100 nM",10%
same,IC50,[3],> 10000 nM
same,IC50,bpFabI,> 3000 nM
CCCCCCc1ccn(Cc2cccnc2F)c(=O)c1 [PT175],IC50,saFabI [1],> 1000 nM
same,IC50,[2],> 4000 nM
same,MIC,S. aureus RN4220; [7],50 µg/mL
same,MIC,F. tularensis LVS,14 µg/mL
same,MIC,M. tuberculosis H37Rv; 2-pyridones table,50 µg/mL
same,MIC,Bt38,78.3 µg/mL
same,IC50,bpFabI,> 1000 nM
Oc1cc(F)ccc1Oc1ccccc1 [PT55],Ki,ecFabI; [9],92.6 nM
same,Ki,ecFabI; [10],1.1 nM
same,MIC,E. coli MG1655 ΔacrAB,1.2 µM
CCCCCCc1cc(=O)c(Oc2cccnc2F)cn1C [PT190],IC50,[2],641 ± 55 nM
same,MIC,M. tuberculosis H37Rv; 4-pyridones table,25 µg/mL
CCCCCCc1ccn(Cc2cccc(N)c2C)c(=O)c1 [PT173],IC50,saFabI [1],68 ± 14 nM
same,Ki,"saFabI [1]; Ki (nM), saFabI",2 ± 0.4 nM
same,Ki,"saFabI [1]; Ki, saFabI",1.97 nM
same,Ki,saFabI [1]; [5],7.3 ± 1.5 nM
same,Ki,saFabI [1]; [6],2 ± 0.4 nM
same,Ki,"ecFabI; Ki^app (nM), [S]/KS = 0.19",246 ± 10.1 nM
same,IC50,[2],> 3200 nM
same,MIC,S. aureus RN4220; [8],6.7 µM
same,Escherichia coli MIC (μg/mL) MG1655 ΔacrAB,E. coli MG1655 ΔacrAB; 2-pyridones table,>425 µg/mL
same,MIC,E. coli MG1655 ΔacrAB,> 425 µM
same,MIC,F. tularensis LVS,3.57 µg/mL
same,MIC,M. tuberculosis H37Rv; 2-pyridones table,50 µg/mL
same,MIC,Bt38,36.3 µg/mL
same,IC50,[3],83 ± 15 nM
same,IC50,bpFabI,460 ± 10 nM
CCCCCCc1cc(=O)c(Oc2ccc(N)cc2)cn1C [PT157],IC50,[2],424 nM
same,MIC,M. tuberculosis H37Rv; 4-pyridones table,50 µg/mL
same,IC50,bpFabV,1 µM and 0.87 µM
same,IC50,YpFabV,130 nM
Cn1cc(Oc2ccc([N+](=O)[O-])cc2)c(=O)cc1CCl [PT151],"Mycobacterium tuberculosis enzyme, inhibition at 1 μM","[2]; at 1 μM, [E] = 50 nM",No
CCCCCCc1ccc(Oc2ccccc2C)c(=O)[nH]1 [PT192],Staphylococcus aureus MIC (μg/mL) RN4220,S. aureus RN4220,No
same,MIC,F. tularensis LVS,9.2 µg/mL
same,MIC,Bt38,8.35 µg/mL
